Patent publication US20180221343A1, “PHARMACEUTICAL COMPOSITION FOR PREVENTING OR TREATING MACULAR DEGENERATION” (KOREA RESEARCH INSTITUTE OF CHEMICAL TECHNOLOGY, priority 2011, published 2018)

Key:
[1] = test system: VEGF receptor 2 (FLK-1); test: Expression of VEGF receptor 2 (FLK-1) in corneal tissue by RT-PCR; assay type: in vivo, rats; conditions: subconjunctival injection 20 μl; KR 0.3 mg/ml, Avastin 10 mg/ml
Description: The tests were performed for confirming corneal angiogenesis as a marker. To a Trizole™ solution (200 μl), were added each corneal tissue obtained from the rats of Example 1. Total RNAs were isolated and then cDNAs were prepared by using a reverse transcriptase. Each cDNA (5 μl) was mixed with the primer set of FLK-1 and then PCR amplication was performed in a thermocycler under the following conditions; denaturation at 94° C. for 5 minutes, and then 35 cycles of denaturation at 94° C. for 20 seconds, annealing at 58° C. for 1 minute, and extension at 72° C. for 25 seconds. Each PCR product was loaded on 1% agarose gel; and the resulting ethidium bromide fluorescent bands were identified.

[2] = test system: corneal angiogenesis; test: Inhibitory effects against corneal angiogenesis, subconjunctival injection and eye drop-administration; assay type: in vivo, Sprague Dawley rats; conditions: subconjunctival injection 20 μl plus eye drop 50 μl; KR 0.3 mg/ml, Avastin 10 mg/ml
Description: The tests were performed by using Sprague Dawley rats (8 weeks old, male) as animals having corneal damage (15 rats for the experiment group; and 1 rat for normal group, respectively). The corneal damage was induced by applying a cotton swab coated with silver nitrate to the surface of the rat corneas, as as to induce a damage having a diameter of 2 mm in the central cornea. On the third day after inducing the corneal damages, we confirmed the establishment of corneal angiogenesis-inducing models and then subconjunctivally injected a solution (20 μl) prepared by dissolving the compound of Preparation Example 23, i.e., (2R,3R,4S)-6-amino-4-[N-(4-chlorophenyl)-N-(1H-imidazol-2-ylmethyl)amino]-3-hydroxy-2-methyl-2-dimethoxymethyl-3,4-dihydro-2H-1-benzopyran (KR-31831) in phosphate buffered saline (PBS) containing 10% PEG 400, in the concentration of 0.3 mg/ml. […] The evaluations quantifying the photographs of FIG. 1 were performed by using the Image J (NIH, USA) program and the results thereof were shown in FIG. 2.
Except for performing both the subconjunctival injection and the eye drop-administration of (2R,3R,4S)-6-amino-4-[N-(4-chlorophenyl)-N-(1H-imidazol-2-ylmethyl)amino]-3-hydroxy-2-methyl-2-dimethoxymethyl-3,4-dihydro-2H-1-benzopyran and Avastin, the inhibitory effects against angiogenesis were evaluated according to the same manners as in Example 1. […]

[3] = test system: corneal angiogenesis; test: Inhibitory effects against corneal angiogenesis in animal models having corneal damage (subconjunctival injection); assay type: in vivo, Sprague Dawley rats; conditions: subconjunctival injection 20 μl; KR 0.3 mg/ml, Avastin 10 mg/ml; 1 week after administration
Description: The tests were performed by using Sprague Dawley rats (8 weeks old, male) as animals having corneal damage (15 rats for the experiment group; and 1 rat for normal group, respectively). The corneal damage was induced by applying a cotton swab coated with silver nitrate to the surface of the rat corneas, as as to induce a damage having a diameter of 2 mm in the central cornea. On the third day after inducing the corneal damages, we confirmed the establishment of corneal angiogenesis-inducing models and then subconjunctivally injected a solution (20 μl) prepared by dissolving the compound of Preparation Example 23, i.e., (2R,3R,4S)-6-amino-4-[N-(4-chlorophenyl)-N-(1H-imidazol-2-ylmethyl)amino]-3-hydroxy-2-methyl-2-dimethoxymethyl-3,4-dihydro-2H-1-benzopyran (KR-31831) in phosphate buffered saline (PBS) containing 10% PEG 400, in the concentration of 0.3 mg/ml. In case of the control group, the PBS (20 μl) containing 10% PEG 400 was subconjunctivally injected. As a positive control, a solution (20 μl) prepared by dissolving Avastin (used as an angiogenesis inhibitor) in PBS in the concentration of 10 mg/ml was subconjunctivally injected. The evaluations quantifying the photographs of FIG. 1 were performed by using the Image J (NIH, USA) program and the results thereof were shown in FIG. 2.

[4] = test system: retinal angiogenesis; test: Laser-induced retinal damage model, retinal angiogenesis by dextran-FITC fluorescence; assay type: in vivo, Brown Norway rats; conditions: Avastin 2.5 mg/ml, 10 μl into the vitreous humor; 2 weeks after administration
Description: The tests were performed by using Brown Norway rats (8 weeks old, male) as animals having retinal damage (15 rats for the experiment group; and 1 rat for normal group, respectively). The retinal Bruch's membrane of each Brown Norway rat was damaged using a Zeiss 532s laser at the intensity of […], 30 ms. On the third day after the laser-damaging, the drug was administered into the vitreous humor in order to observe the retinal vessels. The compound of the present invention, i.e., (2R,3R,4S)-6-amino-4-[N-(4-chlorophenyl)-N-(1H-imidazol-2-ylmethyl)amino]-3-hydroxy-2-methyl-2-dimethoxymethyl-3,4-dihydro-2H-1-benzopyran was administered with the solutions (10 μl of each solution) obtained by dissolving in PBS containing 30% PEG 400 and 10% DMSO, in the concentrations of 0.1 mg/ml and 0.3 mg/ml. Avastin was administered with the solution (10 μl) obtained by dissolving in PBS in the concentration of 2.5 mg/ml. In case of the control group, the PBS (10 μl) was administered. In addition, (2R,3R,4S)-6-amino-4-[N-(4-chlorophenyl)-N-(1H-imidazol-2-ylmethyl)amino]-3-hydroxy-2-methyl-2-dimethoxymethyl-3,4-dihydro-2H-1-benzopyran was intraperitoneally administered with the solution obtained by dissolving in PBS containing 30% PEG 400 and 10% DMSO, in the dose of 25 mg/kg. 2 weeks after the drug administrations, dextran-FITC was injected into the left ventricle in the dose of 25 mg/kg, followed by enucleating the eye after 5 minutes therefrom; and then fixing in a 10% formalin solution. The cornea and the eye lens were removed from the fixed eye, which was then observed under a fluorescence microscope. Angiogenesis was identified by the intensity and leakage of dextran-FITC in the laser-induced damage site; and the results thereof were shown in FIG. 7. The evaluations quantifying the photographs of FIG. 7 were performed by using the Image J (NIH, USA) program and the results thereof were shown in FIG. 8.

[5] = test system: rat corneal epithelial wound; test: Corneal Wound Healing Assay (1); assay type: in vivo, SD rats; conditions: topical 10 mg/ml (1%) every 6 hour; observed at 0 and 18 hours
Description: (§1) SD rats (male, 8 weeks, 250 g) were used. Animal study protocol was in accordance with the Association for Research in Vision and Ophthalmology Statement for the Use of Animals in Ophthalmic and Visual Research. All animals were housed in individual cages and maintained under standard conditions (12 hour light-dark cycle).
(§2) 2. Corneal Epithelium Removal Rats were anesthetized by Zoletil® (50 mg/kg, Tiletamina 25 mg, Zolazepam 25 mg; Vibrac, Carros, France) and Rompun® (10 mg/kg, Bayer, France). The cornea was anesthetized by topical 0.5% proparacaine (Alcaine®; Alcon, Fort Worth, Tex., USA). After applying 0.5% proparacaine drops, 5.0 mm Trephine Blade® (Katena, Denville, N.J., USA) was placed and fixed firmly on the corneal surface. One drop of 20% ethanol were put into the tephine well and left in place for 30 seconds, then absorbed with a dry cellulose sponge (Merocel®; Medtronic Solan, Jacksonville, Fla., USA) and irrigated with normal saline. And the epithelium was removed in 6.0 mm diameter.
The drugs were each topically applied in 10 mg/ml (1%) concentration (in 5% DMSO, 10% PEG (Mw 400) and 85% saline (0.9% NaCl)) in every 6 hour.
(§3) The corneal wounds were captured by digital camera under cobalt blue light and the defect area was analyzed by Image J software (Ver 4.1, NIH). The significance between Vehicle and each group was analyzed by paired T-test, and the significance of the test was analyzed by One Way ANOVA analysis.

[6] = test system: rat corneal epithelial wound; test: Corneal Wound Healing Assay (2); assay type: in vivo, SD rats; conditions: topical 3 and 6 mg/ml every 6 hour; observed at 0 and 18 hours
Description: as §1
as §2, with “Rats” for “2. Corneal Epithelium Removal Rats”
The drugs were each topically applied in 3 mg/ml (0.3%) and 6 mg/ml (0.6%) concentrations (in 5% DMSO, 10% PEG (Mw 400) and 85% saline (0.9% NaCl)) in every 6 hour, respectively.
as §3

Molecule | FLK-1 expression in the cornea (control group 100%) [1] | angiogenesis in comparison with the angiogenesis (100%) of the control group [2] [%] | corneal angiogenesis in comparison with the corneal angiogenesis (100%) of the control group [3] [%] | fluorescence intensity at laser-induced damage site (surrounding vessels = 100) [4] | inhibitory effect on normal healing of rat corneal epithelial wound [5] | rate (%) of wound healing compared to vehicle control and KR-31831 (rank) [5] | inhibitory effect on normal healing of rat corneal epithelial wound [6]
Avastin: protein drug used in anti-VEGF antibody injection therapy; used as an angiogenesis inhibitor, positive control | about 59% | 29.3±8.6 | 66.4±10.6 | 46±3 | – | – | –
Cc1ccc(Nc2nccc(N(C)c3ccc4c(C)n(C)nc4c3)n2)cc1S(N)(=O)=O [Pazopanib] | – | – | – | – | showed inhibitory effect | the least lowest rate (%) of wound healing among the three but lower than the control | showed inhibitory effect
CNC1(C)C2CCC(C2)C1(C)C (stereo not shown) [ATG-003] | – | – | – | – | showed inhibitory effect | the second lowest rate (%) of wound healing | showed inhibitory effect
Cc1cc(-c2cc(OC(=O)c3ccccc3)ccc2Cl)cc2nnc(Nc3ccc(OCCN4CCCC4)cc3)nc12 [TG100801] | – | – | – | – | showed inhibitory effect | the lowest rate (%) of wound healing | showed inhibitory effect
